The values below come from patent publication US20180147175A1, “COMPOSITIONS AND METHODS FOR TREATMENT OF MOVEMENT DISORDERS” (ULTRAGENYX PHARMACEUTICAL INC., priority 2015, published 2018).

Data set [1] deals with brain response to cortical activation. Description: Functional 31P-NMR spectroscopy (f-MRS) of brain, Pi/PCr ratio during visual activation. The class given is in vivo, human. The protocol:
Functional ^31P-NMR spectroscopy (f-MRS) was performed at 3 T at the end of each study phase in patients >15 years old (n=5). Data were collected for 4 minutes at rest, 8 minutes during visual activation, 8 minutes after stimulation, and analyzed as described (Adanyeguh et al., 2015, Neurology 84: 490-495 and Mochel et al., 2012, Mov Disord. 27: 907-910). The ratio of Pi/PCr was calculated to determine the brain response to cortical activation.
(§1) Paired t-tests were used for plasma analyses before and after treatment. For clinical parameters, Friedman tests were used to test the global hypothesis that all study phases were equal. If significant, Wilcoxon signed-rank tests were applied for pair-wise phase comparisons with an alpha of 0.05. For the Pi/PCr ratio, repeated measures ANOVA were used to test the global hypothesis that all time points—rest, activation and recovery—were equal. If significant, paired t-tests were applied for pair-wise time comparisons with an alpha of 0.05.

The subject of data set [2] is GLUT1-DS patients with non-epileptic paroxysmal manifestations. Description: Open-label pilot study in GLUT1-DS patients: paroxysmal events diary and clinical scales. Format: in vivo, human.
Source text: This example describes an open-label pilot study with four phases of 2 months each (baseline, treatment […], and resumption of treatment) in eight GLUT1-DS patients (7-47 years old) with non-epileptic paroxysmal manifestations.
Participants were enrolled in an interventional clinical protocol. Four children and four adults with GLUT1-DS were enrolled. […] All patients were on a normal diet prior to their enrollment. As noted above, the study was divided into four phases of 2 months each (baseline, treatment, withdrawal, and resumption of treatment). A trained dietitian determined patients' caloric intake and adapted the daily menus so the diets remained isocaloric when triheptanoin was introduced.
A comprehensive diary was kept for each patient to record all motor and non-motor paroxysmal events—including dystonia, tremor, speech disorder, stiffness, paresis, headaches, confusion, and lethargy. At each visit, patients were evaluated with a six minute walk test (6MWT), a nine-hole pegboard test (NHPT), the clinical global impression-improvement scale (CGI-I) and a fatigue severity scale (KFFS or visual analogue scale for patients <15 years old). Blood samples were collected after an overnight fast for standard analyses, and the measurement of plasma C3-carnitine and C5-ketone bodies (Mochel et al., 2005, Molecular Genetics and Metabolism 84: 305-312).
as §1

“Also recorded” adds a separate entry of the source.

On to `CCCCCCC(=O)OCC(COC(=O)CCCCCC)OC(=O)CCCCCC` [triheptanoin], for which, in data set [1] (after 2 months on triheptanoin, ANOVA p=0.014, patients >15 years, n=5), the f-MRS bioenergetics profile entry is reported as “corrected; also recorded: normalized”. Further, the f-MRS profile result in data set [1] (after treatment withdrawal) is given as “came back abnormal”. The tolerability entry in data set [2] (1 g/kg/day oral, all patients) is recorded as “well tolerated”. In addition, the paroxysmal manifestations entry in data set [2] (after treatment was resumed) is “dropped significantly”. The “non-epileptic paroxysmal manifestations (FIG. 1)” value in data set [2] (treated 2 months and on resumption, p<0.05) is on record as “significant reduction”. The “average number of dystonic events” value is listed as 2 in data set [2] (treated 2 months, 1 g/kg/day oral, n=6, baseline 16 (±19, 1-54)) and 13 in data set [2] (withdrawal phase, 2 months). Also, the “average number of paroxysmal manifestations” value in data set [2] (treated 2 months, 1 g/kg/day oral, n=6, baseline average 31 (±28, 10-85), p=0.028) is recorded as 3 (±3, 0-7); in data set [2] (withdrawal phase, 2 months, p=0.043) it was 24. For the same compound, the “performance during the 6MWT and NHPT” value in data set [2] (treatment phase) is given as “unchanged”. Besides, the CGI-I scale entry in data set [2] (treatment phase, all patients) is given as “much improved”; in data set [2] (withdrawal phase, five out of six patients), “much worse”. Further, the fatigue score result in data set [2] (treatment phase, did not reach significance) is recorded as “tended to improve”; in data set [2] (withdrawal phase) it was “worsened”.
